Data reported in patent US6288104A, “Pharmaceutical compositions containing mesembrine and related compounds” (African Natural Health CC, priority 1996, dated 2001).
Values joined by “and” are separate entries in the source; they are usually repeats but may differ in a detail not shown here. Equal values may be shown once. “Also recorded” adds a separate entry of the source.

Columns and labels:
Serotonin-uptake = Serotonin-uptake (Homo sapiens, UniProt P31645); assay: Novascreen serotonin-uptake assay, with reference to imipramine HCl; assay type: biochemical; conditions: for serotonin-uptake inhibition (in words): FIGS. 1 to 4, comparison with imipramine HCl
Description: FIG. 2 is a graph for a serotonin-uptake assay of a whole plant extract of a plant from the family Mesembryanthemaceae, identified by the code number 18639, as well as some comparisons with the known serotonin-uptake inhibitor imipramine HCl;
FIG. 3 is a graph for a serotonin-uptake assay for mesembranol, identified by the code number 18623, as well as some comparisons with the known serotonin-uptake inhibitor imipramine HCl; and
FIG. 4 is a graph for a serotonin-uptake assay for mesembranone, identified by the code number 18622, as well as some comparisons with the known serotonin-uptake inhibitor imipramine HCl.
In addition, the whole plant extract of Sceletium N.E.Br., mesembranol and mesembranone were screened for biological activity by the National Institute of Mental Health in the United States of America through the contract with Novascreen.

healthy adult volunteers = assay: Study 2: single sublingual dose of pure (-)-mesembrine in healthy adult volunteers; assay type: in vivo; conditions: single 200 microgram sublingual dose in 1 ml of 60% ethanol
Protocol: Various […] studies of the effects of the compounds of the invention were carried out in adult volunteers as follows:
Study 2. N=2 Healthy Adult Volunteers, All Health Professionals Sep. 21, 1996.

GABA B = assay: Novascreen GABA B receptor screen; assay type: binding; conditions: Average: N = 2; Concentration 5,0E1

Sequence of Serotonin-uptake (P31645 whole entry): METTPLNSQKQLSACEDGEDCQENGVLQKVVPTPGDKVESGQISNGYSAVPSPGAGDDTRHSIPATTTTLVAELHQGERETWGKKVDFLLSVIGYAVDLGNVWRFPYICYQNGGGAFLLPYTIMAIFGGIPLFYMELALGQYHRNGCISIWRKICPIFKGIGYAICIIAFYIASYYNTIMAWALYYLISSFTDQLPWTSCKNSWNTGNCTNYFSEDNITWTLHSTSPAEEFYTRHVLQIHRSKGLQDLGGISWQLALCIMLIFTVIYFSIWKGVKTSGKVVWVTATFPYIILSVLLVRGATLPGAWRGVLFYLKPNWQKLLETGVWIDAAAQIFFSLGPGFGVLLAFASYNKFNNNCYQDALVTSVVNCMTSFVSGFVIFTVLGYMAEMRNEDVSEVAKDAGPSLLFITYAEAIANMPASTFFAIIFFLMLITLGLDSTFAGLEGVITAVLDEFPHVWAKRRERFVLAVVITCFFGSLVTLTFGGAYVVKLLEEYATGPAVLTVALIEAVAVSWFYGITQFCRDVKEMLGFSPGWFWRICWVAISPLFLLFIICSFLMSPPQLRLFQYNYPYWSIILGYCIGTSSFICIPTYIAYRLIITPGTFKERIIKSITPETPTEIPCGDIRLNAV

| SMILES | serotonin-uptake inhibition (in words) (Serotonin-uptake) | Anxiolytic effect (healthy adult volunteers; N=2) | Duration of anxiolytic action (healthy adult volunteers; N=2) | Sustained elevation of mood (healthy adult volunteers; N=2) | Duration of sustained elevation of mood (healthy adult volunteers; N=2, individual volunteers) | Onset of action (healthy adult volunteers; N=2, individual volunteers) | Percent Inhibition, GABA B (GABA B) | Percent Inhibition, Serotonin-uptake (Serotonin-uptake; Average: N = 2, Concentration 5,0E1) |
| --- | --- | --- | --- | --- | --- | --- | --- | --- |
| COc1ccc(C23CCC(O)CC2N(C)CC3)cc1OC (stereo not shown) [mesembranol] | highly potent serotonin-uptake inhibitors |  |  |  |  |  |  |  |
| COc1ccc(C23CCC(=O)CC2N(C)CC3)cc1OC (single isomer, unassigned; (-)) [(-)-mesembrine, 3a-(3,4-dimethoxyphenyl)-octahydro-1-methyl-6H-indol-6-one] | highly potent serotonin-uptake inhibitor | noted by both | five hours to eight hours | noted by both | approximately eight; also recorded: eleven | 7 min and 12 min | -0,6% | 96,5% |
| COc1ccc(C23C=CC(=O)CC2N(C)CC3)cc1OC (stereo not shown) [mesembranone] | highly potent serotonin-uptake inhibitors |  |  |  |  |  |  |  |
